The source of these data is article PMC5778891 (Nature, 2017).

Usually EC50 stands for the concentration at which the effect is half-maximal. High values mean lower potency in that assay, low ones higher potency in that assay.

SMILES strings stand for the structures. Where a chain is given by its changes, count along the chain named.

Data set [1] addresses T1, K2P2.1(TREK-1) (Mus musculus, UniProt P97438).
T1 sequence (P97438 1-411 isoform P97438-2): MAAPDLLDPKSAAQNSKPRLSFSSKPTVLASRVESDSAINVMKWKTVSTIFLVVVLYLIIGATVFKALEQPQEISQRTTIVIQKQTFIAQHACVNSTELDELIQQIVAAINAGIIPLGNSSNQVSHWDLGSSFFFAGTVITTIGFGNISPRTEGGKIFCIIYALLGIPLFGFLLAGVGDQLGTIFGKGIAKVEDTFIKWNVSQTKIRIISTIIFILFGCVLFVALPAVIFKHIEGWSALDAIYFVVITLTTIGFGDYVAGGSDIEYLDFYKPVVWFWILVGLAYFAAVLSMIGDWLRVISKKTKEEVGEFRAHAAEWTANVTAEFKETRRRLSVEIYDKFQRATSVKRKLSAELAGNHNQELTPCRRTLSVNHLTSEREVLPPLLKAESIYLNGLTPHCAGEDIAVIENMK
The experiment in a line: Two electrode voltage clamp in Xenopus oocytes, K2P2.1. It counts as cell-based.

A further data set deals with T2, K2P10.1(TREK-2) (Homo sapiens, UniProt P57789).
T2 sequence (P57789 1-543 isoform P57789-3): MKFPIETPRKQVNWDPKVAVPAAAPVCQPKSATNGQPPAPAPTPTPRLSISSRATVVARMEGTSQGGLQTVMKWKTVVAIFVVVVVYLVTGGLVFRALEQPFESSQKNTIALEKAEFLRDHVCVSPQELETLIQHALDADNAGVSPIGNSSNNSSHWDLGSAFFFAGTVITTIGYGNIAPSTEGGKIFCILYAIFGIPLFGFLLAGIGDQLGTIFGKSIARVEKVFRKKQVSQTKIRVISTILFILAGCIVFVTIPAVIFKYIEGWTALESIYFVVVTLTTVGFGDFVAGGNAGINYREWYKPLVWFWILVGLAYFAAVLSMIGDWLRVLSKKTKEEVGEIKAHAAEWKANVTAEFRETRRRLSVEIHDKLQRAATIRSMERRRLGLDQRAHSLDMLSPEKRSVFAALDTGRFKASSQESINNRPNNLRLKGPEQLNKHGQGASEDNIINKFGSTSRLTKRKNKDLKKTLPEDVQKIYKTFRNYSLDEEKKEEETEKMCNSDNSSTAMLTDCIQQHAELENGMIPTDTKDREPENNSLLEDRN
The experiment in a line: Two electrode voltage clamp in Xenopus oocytes, K2P10.1. It counts as cell-based. For orientation: Two-electrode voltage clamp holds a large cell at a set potential and records current.

The target of another data set is T3, K2P4.1(TRAAK) (Homo sapiens, UniProt Q9NYG8).
T3 sequence (Q9NYG8 1-419 isoform Q9NYG8-2): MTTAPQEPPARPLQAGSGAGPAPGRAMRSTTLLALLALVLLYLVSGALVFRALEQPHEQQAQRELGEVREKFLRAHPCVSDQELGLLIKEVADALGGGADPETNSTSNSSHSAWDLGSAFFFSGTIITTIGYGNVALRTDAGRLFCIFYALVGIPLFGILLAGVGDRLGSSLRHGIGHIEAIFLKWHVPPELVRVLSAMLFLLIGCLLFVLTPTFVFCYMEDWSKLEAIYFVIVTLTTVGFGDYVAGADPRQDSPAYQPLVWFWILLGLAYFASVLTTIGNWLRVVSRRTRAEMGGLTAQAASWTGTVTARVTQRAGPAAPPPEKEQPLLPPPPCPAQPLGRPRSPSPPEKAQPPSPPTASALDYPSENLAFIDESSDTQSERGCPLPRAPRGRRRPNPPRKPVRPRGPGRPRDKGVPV
In words: Two electrode voltage clamp in Xenopus oocytes, K2P4.1. The data set is classed as cell-based.

Data set [2] has as its target T4, K2P2.1(TREK-1) K271Q (Mus musculus, UniProt P97438, K286Q).
T4 sequence (P97438 1-411 isoform P97438-2 K271Q): T1 sequence (P97438 1-411 isoform P97438-2) with K271Q
In words: Two electrode voltage clamp in Xenopus oocytes, K2P2.1. The data set is classed as cell-based. To be noted: for effect of activator (current potentiation at 0 mV) compared with wild type: 10 μM BL-1249, 30 μM ML67-33.

The target of the next data set is T5, K2P4.1(TRAAK) Q258K (Homo sapiens, UniProt Q9NYG8, Q232K).
T5 sequence (Q9NYG8 1-419 isoform Q9NYG8-2 Q258K): T3 sequence (Q9NYG8 1-419 isoform Q9NYG8-2) with Q258K
The experiment in a line: Two electrode voltage clamp in Xenopus oocytes, K2P4.1. It counts as cell-based. Conditions: for effect of activator (current potentiation at 0 mV) compared with wild type: Xenopus oocytes, K2P4.1(TRAAK) Q258K, 10 μM BL-1249, 30 μM ML67-33.

The target in data set [3] is T1, K2P2.1(TREK-1). In words: HEK293 inside-out patches, 150 mM K+[out]/150 mM Rb+[in], rectification. It counts as cell-based. Conditions: 5 μM compound.
Data set [4] is described as follows: Solubility in aqueous solutions. It counts as physicochemical.
For another data set, the target named is K2P2.1(TREK-1)cryst (Mus musculus, UniProt P97438, A104R/A107P/E321A/I103L/K99R/N110S/N134A/Q100E/Q105A/S111D/S315A/T101K/T112Q). The experiment in a line: cell-based.
Sequence of K2P2.1(TREK-1)cryst (P97438 36-337 K99R/Q100E/T101K/I103L/A104R/Q105A/A107P/N110S/S111D/T112Q/N134A/S315A/E321A): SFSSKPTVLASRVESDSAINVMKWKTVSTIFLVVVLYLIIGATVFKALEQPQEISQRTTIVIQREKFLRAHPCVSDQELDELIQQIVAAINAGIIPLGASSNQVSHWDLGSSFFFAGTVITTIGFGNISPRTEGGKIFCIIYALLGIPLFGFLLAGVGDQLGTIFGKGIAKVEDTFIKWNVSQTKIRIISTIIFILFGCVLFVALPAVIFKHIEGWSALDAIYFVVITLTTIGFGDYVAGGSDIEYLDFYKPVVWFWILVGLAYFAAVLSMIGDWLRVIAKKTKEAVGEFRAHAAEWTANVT
The target in data set [5] is T1, K2P2.1(TREK-1). In words: cell-based.
Data set [6] has as its target T4, K2P2.1(TREK-1) K271Q. In words: HEK cell patch clamp response to arachidonic acid, K2P2.1. It counts as cell-based. Conditions: HEK cells, 10 μM AA. (In general: The patch-clamp technique gives a direct electrical read-out from membranes.)

On to `CS(=O)(=O)Nc1ccc(C(=O)NCc2ccc(Cl)cc2Cl)cc1` [ML335, N-[(2,4-dichlorophenyl)methyl]-4-methanesulfonamidobenzamide], for which the EC50 at K2P2.1(TREK-1) [1] is 14.3 ± 2.7 µM; on K2P10.1(TREK-2) it was 5.2 ± 0.5 µM; on K2P4.1(TRAAK) Q258K, 16.2 ± 3 µM; at K2P2.1(TREK-1)cryst it was 10.5 ± 2.7 µM; at K2P2.1(TREK-1) [5], 5.2 ± 0.8 µM. The activation of channel entry at K2P4.1(TRAAK) is recorded as “not”. For the same molecule, on K2P2.1(TREK-1) K271Q [2], the sensitivity to activator result is given as “insensitive”. At K2P2.1(TREK-1) [3], the “rectification coefficient (I+100mV/I-100mV)” value is reported as ~ 1. In addition, in data set [4], the “solubility in aqueous solutions” value was “insoluble”.
Turning to `CC1(C)c2cc(Cl)ccc2N(CCc2nn[nH]n2)c2ccc(Cl)cc21` [ML67-33, reference compound], the “effect of activator (current potentiation at 0 mV) compared with wild type” value (“effect of activator … compared with wild type” below) on K2P2.1(TREK-1) K271Q [2] and at K2P4.1(TRAAK) Q258K was “unchanged” each time.
As for `Cc1cc(Cl)ccc1OCCNC(=O)c1cccs1` [ML402, N-[2-(4-chloro-2-methylphenoxy)ethyl]thiophene-2-carboxamide], the concentration for a half-maximal effect (EC50) at K2P2.1(TREK-1) [1] was 13.7 ± 7 µM; at K2P10.1(TREK-2), 5.9 ± 1.6 µM; at K2P4.1(TRAAK) Q258K, 13.6 ± 1.5 µM; on K2P2.1(TREK-1)cryst it was 14.9 ± 1.6 µM; on K2P2.1(TREK-1) [5], 5.9 ± 1.6 µM. Further, the activation of channel result at K2P4.1(TRAAK) is on record as “not”. In addition, the sensitivity to activator result at K2P2.1(TREK-1) K271Q [2] is on record as “insensitive”. Further, the “rectification coefficient (I+100mV/I-100mV)” value on K2P2.1(TREK-1) [3] is on record as ~ 1. In addition, the “solubility in aqueous solutions” value in data set [4] is reported as “insoluble”.
For the molecule `c1ccc(-c2nnn[nH]2)c(Nc2cccc3c2CCCC3)c1` [BL-1249, (5,6,7,8-tetrahydro-naphthalen-1-yl)-[2-(1H-tetrazol-5-yl)-phenyl]-amine, reference compound], the “effect of activator … compared with wild type” value at K2P2.1(TREK-1) K271Q [2] and at K2P4.1(TRAAK) Q258K was “unchanged” throughout.
With `CCCCC/C=C\C/C=C\C/C=C\C/C=C\CCCC(=O)O` [arachidonic acid], the “effect of activator … compared with wild type” value at K2P2.1(TREK-1) K271Q [6] was “unchanged”.
Take `C=CS(=O)(=O)N[C@H]1CC[C@H](C(=O)NCc2ccc(Cl)cc2Cl)CC1` [ML335a, trans-N-[(2,4-dichlorophenyl)methyl]-4-ethenesulfonamidocyclohexane-1-carboxamide]: the effect on channel result at K2P2.1(TREK-1) [1] (Xenopus oocytes, dose response, K2P2.1(TREK-1)) is on record as “no effect”.
